What all share (type): cell-based
Data set [1] has as its system H4K12me1 levels in PC-3 M prostate tumor cells. Kind of data set: Western blot of cellular H4K12me1 levels. The note with it: PC-3 M cells, 10 μM, 3 days. As for the experimental part: 7 Cellular activity of prodrug compound 8. (A) Levels of H4K12me1 in PC-3 M prostate tumor cells cultured in the presence of DMSO (−), 10 μM compound 8 or compound 8-N for 3 days were analyzed by Western blot using the indicated antibodies. Histone H4 was used as control. (B, C) Proliferation of Caco-2 cells treated with DMSO (Ctrl), compound 8, or compound 8-N were measured by Xcelligence. Data represent means ± s.d (n = 3). (D) Proliferation of HepG2 cells upon treatment of DMSO (Ctrl) and compound 8.
Experiments were performed as previously described. Histones used for Western blot analysis were extracted from cells as following: Cells were harvested, washed with PBS, resuspended in Triton Extraction Buffer (TEB; PBS, Triton ×100, 2 mM PMSF, 0.02% NaN3), stored 10 min on ice, centrifuged, and supernatant was discarded. After washing cells, a second time with TEB, pellets were resuspended in 0.2 N HCl and histones were acid-extracted overnight at 4 °C. Upon centrifugation for 10 min at 2000 rpm, supernatant was collected and protein concentration was determined. Three days before harvesting, cells were transfected with siRNA as indicated. The following antibodies were used: anti-KMT9α (#27630, lot 20062017, Schüle Lab), antihistone H4 (#ab10158, lot GR322677–1, Abcam), anti-H4K12me1 (#27429, lot 27062017, Schüle Lab).
On the technique in general: A western blot detects proteins with antibodies after separation by electrophoresis.

For data set [2], the system named is Caco-2 cells. The data set can be described thus: Cell proliferation assay (X-Celligence), Caco-2. As to conditions: Xcelligence, vs DMSO. On the procedure:
Cell proliferation was determined using the X-Celligence RTCA system (Roche). For real-time recording of SW480, Caco-2 cell proliferation, 5000 cells/well were seeded in 16 well E-plates (Roche). […] Cell indices were automatically recorded every 15 min. Relative velocities represent the change of the cell index over time. The sequences of the siRNAs (Stealth RNAi siRNAs; Life Technologies) used in the experiments have been previously described.

Data set [3] concerns SW480 cells. The data set can be described thus: Cell proliferation assay (X-Celligence), SW480. The note with it: Xcelligence, vs DMSO. On the procedure:
Cell proliferation was determined using the X-Celligence RTCA system (Roche). For real-time recording of SW480, Caco-2 cell proliferation, 5000 cells/well were seeded in 16 well E-plates (Roche). Cells were seeded in the presence of DMSO or compound 8/8-N or transfected with the indicated siRNAs in the presence of Dharmafect (Life Technologies) 24 h before seeding in E-plates. Cell indices were automatically recorded every 15 min. Relative velocities represent the change of the cell index over time. The sequences of the siRNAs (Stealth RNAi siRNAs; Life Technologies) used in the experiments have been previously described.

The target in data set [4] is T1, KMT9a (Homo sapiens, UniProt Q9Y5N5).
T1 sequence (Q9Y5N5 1-214): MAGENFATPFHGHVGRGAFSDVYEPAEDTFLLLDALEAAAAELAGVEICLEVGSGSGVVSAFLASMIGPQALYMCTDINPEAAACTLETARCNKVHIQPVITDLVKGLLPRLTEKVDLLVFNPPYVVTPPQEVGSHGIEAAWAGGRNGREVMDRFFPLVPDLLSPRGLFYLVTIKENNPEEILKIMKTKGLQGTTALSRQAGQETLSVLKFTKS
T1 sequence (Q9UI30 1-125 partner): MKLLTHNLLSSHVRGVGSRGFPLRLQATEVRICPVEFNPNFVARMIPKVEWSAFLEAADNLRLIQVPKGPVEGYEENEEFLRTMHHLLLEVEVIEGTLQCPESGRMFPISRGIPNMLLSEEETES
Kind of data set: CETSA in HepG2 cells, KMT9. Also on record: prodrug compound 8 can target endogenous KMT9; endogenous in cells; host or cells: HepG2. The note with it: vs DMSO. On the procedure: For whole cell CETSA, the cells were incubated with 10/15 μM of compound 7b/8/8-N for 18 h. Then, cells were washed with cell culture medium, detached from the surface using trypsin, washed with PBS and the number of cells was determined. Cell concentration was adjusted to 3.6 × 10^7 cells/mL using in PBS with Complete (w/o EDTA, Roche) protease inhibitor. Then, cells were frozen in liquid nitrogen and thawed at 25 °C three times, before being divided in 16 aliquots. Each aliquot was heated to a defined temperature between 40 and 70 °C in a PCR cycler (16 well gradient, 55 °C ± 15). After 3 min incubation, aliquots were snap frozen in liquid nitrogen and thawed at 25 °C. Cell lysates were then centrifuged at 20,000 × g , 4 °C for 20 min. Supernatant were mixed with 5× loading buffer, heated to 70 °C for 5 min and analyzed by Western blotting essentially as previously described. For the CETSA performed with cell lysates, cells were directly harvested and lysed as described above. […]
Figure S5. […] Representative Western blots (D) and quantification (E) showing increased melting temperatures (ΔT m) of endogenous KMT9a upon treatment with compound 8 compared to DMSO. […] Representative Western blots (F) and quantification (G) showing no obvious shifting melting temperatures (ΔT m) of endogenous KMT5A upon treatment with compound 8 compared to DMSO. […]

Molecules are shown by their SMILES.

As usually defined, the ΔTm is the shift of the melting midpoint relative to a reference. As for `CCOC(=O)[C@@H](N)CCN(CCCNCCc1ccc(Oc2ccc(Cl)cc2)c(F)c1)C[C@H]1C[C@@H](n2ccc3c(NC)ncnc32)[C@H](O)[C@@H]1O` [compound 8, Ethyl (S)-2-amino-4-((3-((4-(4-chlorophenoxy)-3-fluorophenethyl)amino)propyl) (((1R,2R,3S,4R)-2,3-dihydroxy-4-(4-(methylamino)-7H-pyrrolo[2,3-d]pyrimidin-7-yl)cyclopentyl)methyl)amino)butanoate], the “Levels of H4K12me1” value in data set [1] is given as “reduced H4K12me1 levels”. Besides, the “Proliferation of Caco-2 cells” value in data set [2] is listed as “strongly suppressed proliferation”. In data set [3], the “Proliferation of SW480 cells” value is “also found in SW480 tumor cell lines”. For the same compound, the ΔTm at 15 µM in data set [4] turned out to be 8 °C.
